The values that follow are results of earlier work, collected in US10596124B2, “Lipid nanoparticle compositions and methods as carriers of cannabinoids in standardized precision-metered dosage forms” (NanoSphere Health Sciences, LLC, priority 2015, dated 2020).

The conditions of the data set: intranasal.

Take `C=C(C)[C@@H]1CCC(C)=C[C@H]1c1c(O)cc(CCCCC)cc1O` [CBD, cannabidiol]: the “time to absorption into the systemic circulation” value was not above 10 min.
